Laboratory results reported in PubChem BioAssay (NCI).
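In this assay, cells in 96-well plates receive the compound at five concentrations for 48 hours. Endpoints are linearly interpolated between the surrounding concentrations. At the TGI there is no net growth.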

Legend:
Test in all cases: DTP human tumour cell line panel, 48 h
[1] = system: 786-0 renal
[2] = system: A498 renal
[3] = system: A549 NSCLC
[4] = system: ACHN renal
[5] = system: BT-549 breast
[6] = system: CCRF-CEM leukemia
[7] = system: DU-145 prostate
[8] = system: EKVX NSCLC
[9] = system: HCC-2998 colon
[10] = system: HCT-116 colon
[11] = system: HCT-15 colon
[12] = system: HL-60(TB) leukemia
[13] = system: HOP-62 NSCLC
[14] = system: HOP-92 NSCLC
[15] = system: HS 578T breast
[16] = system: HT29 colon
[17] = system: IGROV1 ovarian
[18] = system: K-562 leukemia
[19] = system: KM12 colon
[20] = system: LOX IMVI melanoma
[21] = system: M14 melanoma
[22] = system: MALME-3M melanoma
[23] = system: MCF7 breast
[24] = system: MDA-MB-231 breast
[25] = system: MDA-MB-435
[26] = system: MDA-N
[27] = system: MOLT-4 leukemia
[28] = system: NCI-H226 lung
[29] = system: NCI-H23 lung
[30] = system: NCI-H460 lung
[31] = system: NCI-H522 lung
[32] = system: NCI/ADR-RES ovarian
[33] = system: OVCAR-3 ovarian
[34] = system: OVCAR-5 ovarian
[35] = system: OVCAR-8 ovarian
[36] = system: RPMI-8226 leukemia
[37] = system: RXF 393 renal
[38] = system: SF-268 CNS
[39] = system: SF-295 CNS
[40] = system: SF-539 CNS
[41] = system: SK-MEL-28 melanoma
[42] = system: SK-MEL-5 melanoma
[43] = system: SN12C renal
[44] = system: SNB-19 CNS
[45] = system: SNB-75 CNS
[46] = system: SR leukemia
[47] = system: SW-620 colon
[48] = system: T-47D breast
[49] = system: TK-10 renal
[50] = system: U251 CNS
[51] = system: UACC-257 melanoma
[52] = system: UACC-62 melanoma
[53] = system: UO-31 renal
[54] = system: COLO 205 colon
[55] = system: OVCAR-4 ovarian
[56] = system: PC-3 prostate
[57] = system: SK-MEL-2 melanoma
[58] = system: SK-OV-3 ovarian

Compound: CC(=O)Oc1ccc(C)c2c1[C@H]1CC[C@]3(C)[C@@H](OC(C)=O)CC[C@H]3[C@@H]1CC2
- TGI [1]: 39.4 µM
- TGI [2]: 31.4 µM
- TGI [3]: 50.8 µM
- TGI [4]: 29.8 µM
- TGI [5]: 32 µM
- TGI [6]: 55.2 µM
- TGI [7]: 66.6 µM
- TGI [8]: 30.9 µM
- TGI [9]: 32.8 µM
- TGI [10]: 31.2 µM
- TGI [11]: 35.2 µM
- TGI [12]: 51.5 µM
- TGI [13]: 32 µM
- TGI [14]: 30.9 µM
- TGI [15]: 47 µM
- TGI [16]: 33.5 µM
- TGI [17]: 36.4 µM
- TGI [18]: 68.3 µM
- TGI [19]: 35.1 µM
- TGI [20]: 31.4 µM
- TGI [21]: 32.2 µM
- TGI [22]: 30.4 µM
- TGI [23]: 38.9 µM
- TGI [24]: 33.9 µM
- TGI [25]: 32.9 µM
- TGI [26]: 36.8 µM
- TGI [27]: 46.5 µM
- TGI [28]: 54.8 µM
- TGI [29]: 34.7 µM
- TGI [30]: 37.4 µM
- TGI [31]: 34.1 µM
- TGI [32]: 40.4 µM
- TGI [33]: 33.1 µM
- TGI [34]: > 100 µM
- TGI [35]: 58.3 µM
- TGI [36]: 49.4 µM
- TGI [37]: 35.4 µM
- TGI [38]: 80.3 µM
- TGI [39]: 48.5 µM
- TGI [40]: 38 µM
- TGI [41]: 33.2 µM
- TGI [42]: 34.9 µM
- TGI [43]: 39 µM
- TGI [44]: 32.6 µM
- TGI [45]: 54.5 µM
- TGI [46]: > 100 µM
- TGI [47]: 34.4 µM
- TGI [48]: 40.6 µM
- TGI [49]: 67.9 µM
- TGI [50]: 29.1 µM
- TGI [51]: 35.6 µM
- TGI [52]: 34.5 µM
- TGI [53]: > 100 µM

Compound: O=C(O)c1ccccc1/C=N\N(CCO)C1=NCCN1
- TGI [1]: > 100 µM
- TGI [3]: > 100 µM
- TGI [4]: > 100 µM
- TGI [5]: > 100 µM
- TGI [6]: > 100 µM
- TGI [54]: > 100 µM
- TGI [7]: > 100 µM
- TGI [8]: > 100 µM
- TGI [9]: > 100 µM
- TGI [10]: > 100 µM
- TGI [11]: > 100 µM
- TGI [12]: > 100 µM
- TGI [13]: > 100 µM
- TGI [14]: > 100 µM
- TGI [15]: > 100 µM
- TGI [16]: > 100 µM
- TGI [17]: > 100 µM
- TGI [18]: > 100 µM
- TGI [19]: > 100 µM
- TGI [20]: > 100 µM
- TGI [21]: > 100 µM
- TGI [22]: > 100 µM
- TGI [23]: > 100 µM
- TGI [24]: > 100 µM
- TGI [25]: > 100 µM
- TGI [26]: > 100 µM
- TGI [27]: > 100 µM
- TGI [28]: > 100 µM
- TGI [29]: > 100 µM
- TGI [30]: > 100 µM
- TGI [33]: > 100 µM
- TGI [55]: > 100 µM
- TGI [34]: > 100 µM
- TGI [35]: > 100 µM
- TGI [56]: > 100 µM
- TGI [36]: > 100 µM
- TGI [37]: > 100 µM
- TGI [38]: > 100 µM
- TGI [39]: > 100 µM
- TGI [40]: > 100 µM
- TGI [57]: > 100 µM
- TGI [41]: > 100 µM
- TGI [42]: > 100 µM
- TGI [58]: > 100 µM
- TGI [43]: > 100 µM
- TGI [44]: > 100 µM
- TGI [45]: > 100 µM
- TGI [46]: > 100 µM
- TGI [47]: > 100 µM
- TGI [48]: > 100 µM
- TGI [49]: > 100 µM
- TGI [50]: > 100 µM
- TGI [52]: > 100 µM
- TGI [53]: > 100 µM
